Like-named read-outs stand apart in the source and are kept apart here.
Tests used:
[1] = 28-day study toxicokinetics of brincidofovir and CDV in plasma; type: in vivo, Sprague-Dawley CD rats; conditions: plasma brincidofovir; for AUC(0-t) / Cmax: iv
Procedure: Blood samples were obtained for the determination of plasma concentrations of brincidofovir and the brincidofovir metabolite, cidofovir.
Approximately 0.40 mL of whole blood was obtained via the tail vein from each animal at each time point. Animals were not fasted prior to blood collection. Blood was collected into tubes containing K2EDTA anticoagulant and placed on wet ice in an upright position. Plasma was separated by centrifugation (for 10 minutes at approximately 2000 g, at approximately 2-8° C.). Approximately 0.150 mL of plasma was transferred into a single cryotube appropriately labeled as to study number, animal number, time point, date of sampling and sample type. Remaining plasma was transferred into a second cryotube and retained as a backup sample. Plasma was obtained and frozen at approximately −80±10° C. within approximately 2 hours after collection of each blood sample until analysis. Animals were euthanized (CO2 inhalation) after the final blood collection.
Bioanalytical samples were analyzed using a validated liquid chromatographic-triple quadruple mass spectrometric (LC-MS/MS) assay at Pyxant Labs.
Upon receipt of the plasma concentration data, noncompartmental toxicokinetic analysis was performed by Nuventra, Inc. Durham, N.C.

[2] = Drug product vial and stopper compatibility; type: physicochemical
Procedure: Formulations of the disclosure were evaluated for […]. The testing formulation (5 mL, 10 mg/mL brincidofovir, 200 mM sodium phosphate, pH=8.0) was dispensed into a set of Afton sterilized, Ready-To-Fill® vials. The vials were stoppered with West NovaPure® stoppers and crimped with Afton Ready-To-Fill® sterilized seals, and stored for 6 hours at ambient conditions in upright and inverted orientations. Samples of the filling solution were collected before filling and after 6 hours of storage under the respective condition. The collected samples were assessed for their appearance, pH, and c(BCV). […] No additional impurity was introduced following contact.
The vials used for testing were clear, 20 mL, Class A borosilicate glass serum vials, and the stoppers were 20 mm Novapure® stoppers, with FluroTec® coating.

[3] = Clinical infusion bag compatibility; type: physicochemical
Procedure: A standard mini-infusion bag (100 mL) was subjected to material compatibility testing with the following formulation:
The developed brincidofovir formulation (15 mg/mL brincidofovir, 200 mM sodium phosphate, pH=8.0) was diluted to c(BCV)=0.1 and c(BCV)=1.0 mg/mL by injection into the infusion bags. The infusion bags were then stored at ambient conditions, and samples were collected from the infusion bags at the time points (t0, t1h, t8h, and t24h) for assessments of appearance, pH, and c(BCV). As a control, the 5% dextrose solution was removed from a separate infusion bag, and external dilutions (standard laboratory glassware) of the testing formulation with the 5% dextrose solution were performed applying identical dilution factors. Samples of the external diluted solution were likewise analyzed.
Solutions of Formulation 3a, in a 5% dextrose injection vehicle, were prepared at two different formulation strengths (1.0 mg/mL and 0.1 mg/mL brincidofovir), and stored in the infusion bag at ambient conditions. Samples form the infusion bags and from an externally diluted standard were evaluated for appearance, pH and brincidofovir recovery (determined via HPLC) at the beginning of the study (t0), after 8 h (t8h), and after 24 h (t24h).

[4] = both sexes, Sprague-Dawley CD, rat, in vivo, 4 mg/kg, Day 1, 4 mg/kg, combined male and female, Mean
[5] = both sexes, Sprague-Dawley CD, rat, in vivo, 4 mg/kg, Day 1, 4 mg/kg, combined male and female, Median
[6] = both sexes, Sprague-Dawley CD, rat, in vivo, 15 mg/kg, Day 1, 15 mg/kg, combined male and female, Mean
[7] = both sexes, Sprague-Dawley CD, rat, in vivo, 15 mg/kg, Day 1, 15 mg/kg, combined male and female, Median
[8] = Day 29, 1 mg/kg, combined male and female rats, mean
[9] = Day 29, 4 mg/kg, combined male and female rats, mean
[10] = Day 29, 15 mg/kg, combined male and female rats, mean
[11] = Day 1, 1 mg/kg, combined male and female, Median
[12] = Day 1, 4 mg/kg, combined male and female, Mean
[13] = Day 1, 4 mg/kg, combined male and female, Median
[14] = Day 1, 15 mg/kg, combined male and female, Mean
[15] = Day 1, 15 mg/kg, combined male and female, Median
[16] = c(BCV) 0.1 mg/mL in infusion bag, t0
[17] = c(BCV) 0.1 mg/mL in infusion bag, t1 h
[18] = c(BCV) 0.1 mg/mL in infusion bag, t8 h
[19] = c(BCV) 0.1 mg/mL in infusion bag, t24 h
[20] = c(BCV) 0.1 mg/mL, external dilution
[21] = c(BCV) 1.0 mg/mL in infusion bag, t0
[22] = c(BCV) 1.0 mg/mL in infusion bag, t1 h
[23] = c(BCV) 1.0 mg/mL in infusion bag, t8 h
[24] = c(BCV) 1.0 mg/mL in infusion bag, t24 h
[25] = c(BCV) 1.0 mg/mL, external dilution

Question: Which results are given for `CCCCCCCCCCCCCCCCOCCCOP(=O)(O)CO[C@H](CO)Cn1ccc(N)nc1=O` [Brincidofovir]?
Answer: concentration at 2 h ([1]; both sexes, Sprague-Dawley CD, rat, in vivo, 1 mg/kg, Day 1, 1 mg/kg, combined male and female, Mean, read-out: Clast): 209 ng/mL; concentration at 8 hr ([1]; both sexes, Sprague-Dawley CD, rat, in vivo, 4 mg/kg, Day 29, 4 mg/kg, combined male and female rats, mean, read-out: Clast): 2.06 ng/mL; concentration at 8 h ([1]; both sexes, Sprague-Dawley CD, rat, in vivo, 4 mg/kg, Day 1, 4 mg/kg, combined male and female, Mean, read-out: Clast): 2.2 ng/mL; concentration at 8 h ([1]; both sexes, Sprague-Dawley CD, rat, in vivo, 4 mg/kg, Day 1, 4 mg/kg, combined male and female, Median, read-out: Clast): 2.31 ng/mL; concentration at 8 hr ([1]; both sexes, Sprague-Dawley CD, rat, in vivo, 15 mg/kg, Day 29, 15 mg/kg, combined male and female rats, mean, read-out: Clast): 10.9 ng/mL; concentration at 8 h ([1]; both sexes, Sprague-Dawley CD, rat, in vivo, 15 mg/kg, Day 1, 15 mg/kg, combined male and female, Mean, read-out: Clast): 9.68 ng/mL; concentration at 8 h ([1]; both sexes, Sprague-Dawley CD, rat, in vivo, 15 mg/kg, Day 1, 15 mg/kg, combined male and female, Median, read-out: Clast): 10.3 ng/mL; AUC(0-t) ([1]; both sexes, Sprague-Dawley CD, rat, in vivo, 1 mg/kg, Day 29, 1 mg/kg, combined male and female rats, mean, calculated using only 2 quantifiable data points): 410 ng·h/mL; Cmax ([1]; both sexes, Sprague-Dawley CD, rat, in vivo, 1 mg/kg, Day 1, 1 mg/kg, combined male and female, Mean): 219 ng/mL; AUC(0-t) ([1]; both sexes, Sprague-Dawley CD, rat, in vivo, 1 mg/kg, Day 1, 1 mg/kg, combined male and female, Mean, only 2 quantifiable data points): 319 ng·h/mL; Cmax ([1]; both sexes, Sprague-Dawley CD, rat, in vivo, 1 mg/kg, Day 1, 1 mg/kg, combined male and female, Median): 210 ng/mL; AUC(0-t) ([1]; both sexes, Sprague-Dawley CD, rat, in vivo, 1 mg/kg, Day 1, 1 mg/kg, combined male and female, Median, only 2 quantifiable data points): 305 ng·h/mL; AUC(0-t) ([1]; both sexes, Sprague-Dawley CD, rat, in vivo, 4 mg/kg, Day 29, 4 mg/kg, combined male and female rats, mean): 2760 ng·h/mL; AUC(0-t) [1, 4]: 2220 ng·h/mL; Cmax [1, 4]: 1010 ng/mL; AUC(0-t) [1, 5]: 2320 ng·h/mL; Cmax [1, 5]: 1000 ng/mL; AUC(0-t) ([1]; both sexes, Sprague-Dawley CD, rat, in vivo, 15 mg/kg, Day 29, 15 mg/kg, combined male and female rats, mean): 9890 ng·h/mL; AUC(0-t) [1, 6]: 8820 ng·h/mL; Cmax [1, 6]: 3800 ng/mL; AUC(0-t) [1, 7]: 8780 ng·h/mL; Cmax [1, 7]: 3760 ng/mL; AUClast/Dose [1, 8]: 410 (hr*ng/mL)/(mg/kg); Cmax/Dose [1, 8]: 298 kg·ng/mL/mg; Tlast ([1]; Day 29, 1 mg/kg, combined male and female rats, median): 2.00 h; AUClast/Dose [1, 9]: 690 (hr*ng/mL)/(mg/kg); Cmax/Dose [1, 9]: 301 kg·ng/mL/mg; Tlast ([1]; Day 29, 4 mg/kg, combined male and female rats, median): 8.00 h; AUClast/Dose [1, 10]: 660 (hr*ng/mL)/(mg/kg); Cmax/Dose [1, 10]: 300 kg·ng/mL/mg; Tlast ([1]; Day 29, 15 mg/kg, combined male and female rats, median): 8.00 h; Cmax/Dose ([1]; Day 1, 1 mg/kg, combined male and female, Mean): 219 kg·ng/mL/mg; AUClast/Dose ([1]; Day 1, 1 mg/kg, combined male and female, Mean, only 2 quantifiable data points): 319 (hr*ng/mL)/(mg/kg); Clast [1, 11]: 206 ng/mL; Cmax/Dose [1, 11]: 210 kg·ng/mL/mg; Tlast [1, 11]: 2.00 h; AUClast/Dose ([1]; Day 1, 1 mg/kg, combined male and female, Median, only 2 quantifiable data points): 305 (hr*ng/mL)/(mg/kg); AUClast/Dose [1, 12]: 554 (hr*ng/mL)/(mg/kg); Cmax/Dose [1, 12]: 252 kg·ng/mL/mg; AUClast/Dose [1, 13]: 579 (hr*ng/mL)/(mg/kg); Cmax/Dose [1, 13]: 250 kg·ng/mL/mg; Tlast [1, 13]: 8.00 h; AUClast/Dose [1, 14]: 588 (hr*ng/mL)/(mg/kg); Cmax/Dose [1, 14]: 254 kg·ng/mL/mg; AUClast/Dose [1, 15]: 585 (hr*ng/mL)/(mg/kg); Cmax/Dose [1, 15]: 251 kg·ng/mL/mg; Tlast [1, 15]: 8.00 h; Appearance ([2]; Inverted, 6 h): Clear, colorless; Measured pH ([2]; Inverted, 6 h): 8.0; Observed c(BCV) ([2]; Inverted, 6 h): 9.4 mg/mL; Appearance ([2]; Pre filling): Clear, colorless; Measured pH ([2]; Pre filling): 8.0; Observed c(BCV) ([2]; Pre filling): 9.5 mg/mL; Appearance ([2]; Upright, 6 h): Clear, colorless; Measured pH ([2]; Upright, 6 h): 8.0; Observed c(BCV) ([2]; Upright, 6 h): 9.5 mg/mL; Appearance [3, 16]: Clear,; Measured pH [3, 16]: 7.9; Observed c(BCV) [3, 16]: 0.092 mg/mL; Appearance [3, 17]: Clear,; Measured pH [3, 17]: 7.9; Observed c(BCV) [3, 17]: 0.093 mg/mL; Appearance [3, 18]: Clear,; Measured pH [3, 18]: 7.9; Observed c(BCV) [3, 18]: 0.093 mg/mL; Appearance [3, 19]: Clear,; Measured pH [3, 19]: 7.9; Observed c(BCV) [3, 19]: 0.093 mg/mL; Appearance [3, 20]: Clear,; Measured pH [3, 20]: 7.9; Observed c(BCV) [3, 20]: 0.098 mg/mL; Appearance [3, 21]: Clear,; Measured pH [3, 21]: 8.2; Observed c(BCV) [3, 21]: 0.87 mg/mL; Appearance [3, 22]: Clear,; Measured pH [3, 22]: 8.2; Observed c(BCV) [3, 22]: 0.87 mg/mL; Appearance [3, 23]: Clear,; Measured pH [3, 23]: 8.2; Observed c(BCV) [3, 23]: 0.87 mg/mL; Appearance [3, 24]: Clear,; Measured pH [3, 24]: 8.1; Observed c(BCV) [3, 24]: 0.86 mg/mL; Appearance [3, 25]: Clear,; Measured pH [3, 25]: 8.2; Observed c(BCV) [3, 25]: 0.94 mg/mL

From patent US20170368082A1, “FORMULATIONS OF BRINCIDOFOVIR” (priority 2016, published 2017)
